Measured values taken from patent publication US7744867B2, “PTPase inhibitors and method of using same” (The Cleveland Clinic Foundation, priority 2001, dated 2010).

Columns and labels:
WM9 cells (Melanoma) = test: Growth inhibition of human tumor cell lines (MTT); type: cell-based
Excerpt: (§1) FIG. 9 illustrates growth inhibition of human cell lines of non-hematopoietic malignancies by sodium stibogluconate and/or IFNα. Percentage of growth inhibition of WM9 (A), DU145 (B), MDA231 (C) and WiT49-N1 (D) in the absence or presence of various amounts of sodium stibogluconate and/or IFNα (1,000 u/ml) in day 6 cultures as measured by MTT assays.
FIG. 10 illustrates sodium stibogluconate augments both IFNα- and IFNβ-induced growth inhibition of WM9 cells. Percentage of growth inhibition of WM9 cells in the absence or presence of various amounts of sodium stibogluconate, IFNα and IFNβ in day 6 cultures as measured by MTT assays. The data illustrates that sodium seems to interact with IFNα and IFNβ in a synergistic manner in growth inhibition of WM9 cells. Data from MTT antiproliferative assays was expressed as percent control growth (PCG) of treated cells, compared to untreated cells (100%). Median effect analysis (inset graphs), similar to isobol analysis, defined drug interaction in the IFNα+sodium stibogluconate and the IFNβ+sodium stibogluconate combinations as synergistic at all doses tested, characterized by a combination index (CI) of less than 1. Additivity is indicated by CI=1, and antagonism occurs when CI>1. Fraction affected (fa)=(100−PCG)/100.
Drug Interaction Analysis. Median effect analysis, which provides the most general form of studying the interactions between drugs, was utilized to analyze the interaction between sodium stibogluconate and IFNα or IFNβ. Since details regarding the mode of IFN and sodium stibogluconate interaction are not fully understood, and whether or not they act in a mutually exclusive fashion, we chose the most general analysis available. Dose response curves were generated for each drug alone, and also the combinations. Median effect plots were generated, which determined m and Dm values for IFN alone, sodium stibogluconate alone, and the combination. The combination index (CI) was determined and plotted vs. fraction affected (FA). Data were analyzed in both modes, mutually exclusive and mutually nonexclusive. […]

DS cells (lymphoma) = test: Growth inhibition of human tumor cell lines (MTT); type: cell-based; settings: day 3; IFNα 1,000 u/ml
Method: FIG. 8 illustrates growth inhibition of human cell lines of hematopoietic malignancies by sodium stibogluconate and/or IFNα: A and B. Growth of DS and DR cells cultured in the absence or presence of various amounts of sodium stibogluconate and/or IFNα (1,000 u/ml) for 3 days was measured by MTT assays; C. Percentage of growth inhibition of DR cells calculated from data in B; D. Percentage of growth inhibition of DR cells by IFNα (1,000 u/ml) and various amounts of sodium stibogluconate in day 6 cultures measured by MTT assays; E. Percentage of growth inhibition of U266 cells by IFNα (1,000 u/ml) and various amounts of sodium stibogluconate in day 6 cultures as measured by MTT assays.

[1] = tested on: MDA435 cells (Breast cancer); test: Growth inhibition of human tumor cell lines; type: cell-based; settings: SS 12.5 μg/ml, IFNα 1,000 u/ml, alone or combined
[2] = tested on: DU145 cells (Prostate cancer); test: Growth inhibition of human tumor cell lines (MTT); type: cell-based
Excerpt: as §1

[3] = tested on: MDA231 cells (Breast cancer); test: Growth inhibition of human tumor cell lines (MTT); type: cell-based
Excerpt: as §1

[4] = cited from earlier work
GST/SHP-1 fusion protein = biological target: T1, GST/SHP-1 fusion protein (Mus musculus, UniProt P29351); test: In vitro PTPase assay, dephosphorylation of a synthetic phosphotyrosine peptide; type: biochemical; settings: Sb concentration of 10 μg/ml
T1 construct: made in house
T1 sequence (P29351 whole entry, the tested form may be a part): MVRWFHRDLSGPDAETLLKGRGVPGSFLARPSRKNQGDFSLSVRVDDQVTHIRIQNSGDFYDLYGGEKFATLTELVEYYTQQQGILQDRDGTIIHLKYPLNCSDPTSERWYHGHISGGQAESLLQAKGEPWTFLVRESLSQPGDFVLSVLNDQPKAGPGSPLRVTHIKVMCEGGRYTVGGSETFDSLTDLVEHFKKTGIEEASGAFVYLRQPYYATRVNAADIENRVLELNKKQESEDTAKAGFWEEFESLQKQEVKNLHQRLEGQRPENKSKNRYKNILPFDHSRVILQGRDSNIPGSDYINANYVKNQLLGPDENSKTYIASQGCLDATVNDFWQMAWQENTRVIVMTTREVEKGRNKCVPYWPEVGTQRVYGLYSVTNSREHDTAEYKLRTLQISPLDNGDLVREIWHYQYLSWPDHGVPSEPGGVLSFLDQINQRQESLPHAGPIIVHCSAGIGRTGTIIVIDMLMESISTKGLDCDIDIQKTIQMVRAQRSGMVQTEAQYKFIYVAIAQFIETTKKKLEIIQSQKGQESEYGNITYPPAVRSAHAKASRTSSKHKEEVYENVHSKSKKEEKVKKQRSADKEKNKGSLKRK
Method: In vitro PTPase activities were measured using the commercial protein tyrosine phosphatase assay kit (UBI) following established procedure. This assay measures the in vitro dephosphorylation of a synthetic phosphotyrosine peptide (R-R-L-I-E-D-A-E-pY-A-A-R-G). Briefly, 0.01 μg of GST/PTPase fusion protein was incubated in 50 μl of Tris buffer (10 mM Tris, […]) at 22° C. for 10 minutes, followed by addition of 0.2 mM of the phosphotyrosine peptide and incubation at 22° C. for 18 hours. 100 μl of Malachite Green solution was added and incubated for 5 minutes, and the absorbance at 660 nm was measured after 5 minutes.

[5] = biological target: T2, intracellular Flag-PRL-2 in WM9 cells (Homo sapiens, UniProt Q12974); test: PTPase activity of anti-Flag immunocomplexes from WM9 transfectants; type: cell-based; settings: treated 5 minutes
T2 construct: expressed in transfected cells; host or cells: WM9 human melanoma cells
T2 sequence (Q12974 whole entry): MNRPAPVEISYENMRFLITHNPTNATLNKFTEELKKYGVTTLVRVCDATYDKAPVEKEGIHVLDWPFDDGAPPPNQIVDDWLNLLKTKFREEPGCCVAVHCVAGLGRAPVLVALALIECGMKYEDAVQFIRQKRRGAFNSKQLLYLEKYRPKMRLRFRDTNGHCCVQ
Method: FIG. 6C. Sodium stibogluconate inactivates intracellular PRL-2 in WM9 human melanoma cells. A. Relative PTPase activities of anti-Flag immunocomplexes from WM9 cells transfected with the control vector (V) or Flag-PRL-2 expression construct and then treated with different amounts of sodium stibogluconate for 5 minutes B. Relative amounts of Flag-PRL-2 in the immunocomplexes as determined by SDS-PAGE/Western blotting. C. Relative PTPase activities of anti-MKP1 immunocomplexes from WM9 cells treated with different amounts of sodium stibogluconate for 5 minutes. Relative amounts of MKP1 in the immunocomplexes as determined by SDS-PAGE/Western blotting.
Flag-PRL-2 protein was detected in anti-Flag immunocomplexes from WM9 cells tranfected with an expression construct of Flag-PRL-2 but not in those from vector transfectants expected.

## IFNα
WM9 cells (Melanoma); WM9, SS 12.5 μg/ml, IFNα 1,000 u/ml, alone or combined
  % of growth inhibition by day 6 (±s.d.): 58 (2) %
WM9 cells (Melanoma); drug at 25-100 μg/ml, agents individually or in combination
  growth inhibition of WM-9 melanoma cells: 58%
DS cells (lymphoma)
  activity against DS cells: almost completely eliminated
[1]
  % of growth inhibition by day 6 (±s.d.): 29 (15) %
[2]; SS 12.5 μg/ml, IFNα 1,000 u/ml, alone or combined
  % of growth inhibition by day 6 (±s.d.): 70 (5) %
[3]; MDA231, SS 12.5 μg/ml, IFNα 1,000 u/ml, alone or combined
  % of growth inhibition by day 6 (±s.d.): 79 (2) %
[3]; drug at 25 μg/ml, agents individually or in combination
  growth inhibition of MDA231 breast cancer cells: 79%

## O.O.O.O.O.O.O.O.O.O=C([O-])[C@@H]1[O][Sb]2([O-])([O][Sb]34([OH])[O][C@H]([C@H](O)CO)[C@H]([O]3)[C@H](C(=O)[O-])[O]4)[O][C@H]([C@H](O)CO)[C@@H]1[O]2.[Na+].[Na+].[Na+] [sodium stibogluconate]
WM9 cells (Melanoma); WM9, 50 μg/ml and 100 μg/ml, day 6 culture
  cell killing as a single agent: killed all cells
DS cells (lymphoma)
  activity against DS cells: modest activity
[4]; in 16 hours
  blood levels, of peak value: around 1%
[4]; in the first 6 hours
  excreted (renal clearance): more than 80%
[4]; standard dosage 10-20 mg/kg/day
  serum levels: ≥ 10000 ng/mL
GST/SHP-1 fusion protein
  effect on recombinant SHP-1: inactivated
[5]
  PTPase activity of Flag-PRL-2 immunocomplexes from treated WM9 transfectants: only low levels of PTPase activity
[2]; 50 μg/ml and 100 μg/ml, day 6 culture
  cell killing as a single agent: killed all cells
[3]; MDA231, 50 μg/ml and 100 μg/ml, day 6 culture
  cell killing as a single agent: killed all cells
